Laboratory results published in patent US7759366B2 (Sanofi-Aventis, priority 2006, dated 2010).
Like-named read-outs stand apart in the source and are kept apart here.

Tests used:
hCB2R = hCB2R (Homo sapiens, UniProt P34972); assay: In vitro functional assay (FLIPR, intracellular Ca2+) with recombinant HEK293 cells, CB2;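 further: intracellular Ca2+ was tracked with the fluorescent dye Fluo-4 loaded into the cells before test substance addition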
Description: Function-testing assays were performed by means of the FLIPR technique (“Fluorometric Imaging Plate Reader”, Molecular Devices Corp.).
To this end, ligand-induced changes in the intracellular concentration of Ca^2+ in recombinant HEK293 cells, which expressed both a cannabinoid receptor (CB1 or CB2) and G-protein Galpha16, were determined. For the studies, cells were sown into 96-well microtiter plates (60 000 cells/well) and left to grow overnight. The medium was removed and the cells were incubated in buffer which contained the fluorescent dye Fluo-4. After this loading with dye, the cells were washed, test substance was added dissolved in buffer, the mixture was incubated for 20 minutes, a known cannabinoid receptor agonist as a reference agonist was added in buffer and, finally, the changes in the intracellular Ca^2+ concentration were measured in the FLIPR unit.

hCB1R [1] = molecular target: T1, hCB1R (Homo sapiens, UniProt P21554); assay: In vitro functional assay (FLIPR, intracellular Ca2+) with recombinant HEK293 cells, CB1; type: cell-based; parameters: expressed in transfected cells; host or cells: HEK293
Text: In Vitro Functional Assays with Recombinant Cells:

hCB1R [2] = molecular target: T1, hCB1R; assay: Binding to the CB1 receptor ([3H]-SR141716A displacement)
How it was run: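 [3H]-SR141716A displacement at hCB1R; test compounds at final 10 μM to 0.005 μM in assay buffer with 1% DMSO, duplicate determinations. Low control 1 μM AM 251, high control binding without compound; IC50 from curve fit, converted to Ki via Cheng-Prusoff using Kd.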

[3] = read-out: hCB2R: FLIPR, IC50, recombinant HEK293 cells expressing CB2 and Galpha16, 20 min preincubation, then reference agonist, Ca2+ change

T1 sequence (P21554 whole entry): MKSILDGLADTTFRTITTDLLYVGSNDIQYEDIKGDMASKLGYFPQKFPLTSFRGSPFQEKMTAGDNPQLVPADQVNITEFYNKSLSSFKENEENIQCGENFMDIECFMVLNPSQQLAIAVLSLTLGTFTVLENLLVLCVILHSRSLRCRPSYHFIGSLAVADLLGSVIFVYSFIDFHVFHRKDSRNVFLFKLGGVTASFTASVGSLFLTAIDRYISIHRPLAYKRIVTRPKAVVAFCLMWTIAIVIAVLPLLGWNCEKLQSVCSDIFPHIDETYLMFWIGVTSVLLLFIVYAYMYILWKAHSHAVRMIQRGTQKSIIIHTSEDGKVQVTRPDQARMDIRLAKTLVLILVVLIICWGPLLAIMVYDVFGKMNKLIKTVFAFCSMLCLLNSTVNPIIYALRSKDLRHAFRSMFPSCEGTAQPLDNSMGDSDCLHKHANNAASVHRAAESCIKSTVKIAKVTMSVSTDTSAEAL
hCB2R, sequence (P34972 whole entry): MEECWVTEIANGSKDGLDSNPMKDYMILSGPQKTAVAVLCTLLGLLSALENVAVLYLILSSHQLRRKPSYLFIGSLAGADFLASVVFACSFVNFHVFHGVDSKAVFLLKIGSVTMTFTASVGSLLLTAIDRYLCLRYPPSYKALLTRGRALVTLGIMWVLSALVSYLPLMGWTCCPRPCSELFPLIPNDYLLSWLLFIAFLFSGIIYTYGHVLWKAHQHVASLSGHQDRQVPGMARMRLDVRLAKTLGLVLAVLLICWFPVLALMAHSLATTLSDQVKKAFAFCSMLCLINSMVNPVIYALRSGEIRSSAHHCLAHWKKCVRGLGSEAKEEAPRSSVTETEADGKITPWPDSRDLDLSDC

Row | IC50 (hCB2R) [nM] | IC50 (hCB1R [1]; recombinant HEK293 cells expressing CB1 and Galpha16, 20 min preincubation, then reference agonist, Ca2+ change, read-out: hCB1R: FLIPR, IC50) [nM] | Ki (hCB1R [2]; CHO-K1/cannabinoid CB1 protein 2 μg/well, [3H]-SR141716A 0.5 nM, Ki from IC50 by Cheng-Prusoff, average of double determination, read-out: hCB1R, binding Ki) [nM] | SMILES | IC50 (hCB2R; [3]) [nM] | IC50 (hCB1R [1]) [nM] | Ki (hCB1R [2]) [nM]
1 |  |  |  | CC1(C)C(=O)N(c2ccc(C#N)c(C(F)(F)F)c2)C(=O)N1Cc1ccccc1Nc1ccc(F)cc1F [Example 11, 4-{3-[2-(2,4-difluorophenylamino)benzyl]-4,4-dimethyl-2,5-dioxoimidazolidin-1-yl}-2-trifluoromethylbenzonitrile] | > 10000 | 0.7 | 1
2 |  |  |  | CC(C)(C)c1cc(N2C(=O)N(Cc3ccccc3Nc3ccc(F)cc3F)C(C)(C)C2=O)ccc1C#N [Example 64, 2-tert-butyl-4-{3-[2-(2,4-difluorophenylamino)benzyl]-4,4-dimethyl-2,5-dioxoimidazolidin-1-yl}benzonitrile] | > 10000 | 16 | 5
3 |  |  |  | COC(=O)c1ccc(Nc2ccccc2CN2C(=O)N(c3ccc(C#N)c(C(F)(F)F)c3)C(=O)C2(C)C)cc1 [Example 60, methyl 4-{2-[3-(4-cyano-3-trifluoromethylphenyl)-5,5-dimethyl-2,4-dioxoimidazolidin-1-ylmethyl]phenylamino}benzoate] | > 10000 | 2 | 1
4 |  |  |  | CC1(C)C(=O)N(c2ccc(C#N)c(C(F)(F)F)c2)C(=O)N1Cc1ccc(C(F)(F)F)cc1Nc1ccc(F)cc1F [Example 56, 4-{3-[2-(2,4-difluorophenylamino)-4-trifluoromethylbenzyl]-4,4-dimethyl-2,5-dioxoimidazolidin-1-yl}-2-trifluoromethylbenzonitrile] | > 10000 | 8 | 3
5 |  |  |  | CC1(C)C(=O)N(c2ccc(C#N)c(C(F)(F)F)c2)C(=O)N1Cc1ccccc1Nc1ccccc1 [Example 1, 4-[4,4-Dimethyl-2,5-dioxo-3-(2-phenylaminobenzyl)imidazolidin-1-yl]-2-trifluoromethylbenzonitrile] | > 10000 | 10 | 13
6 |  |  |  | CC1(C)C(=O)N(c2ccc(C#N)c(C(F)(F)F)c2)C(=O)N1Cc1cccc(Cl)c1Nc1ccc(F)cc1F [Example 42, 4-{3-[5-chloro-6-(2,4-difluorophenylamino)benzyl]-4,4-dimethyl-2,5-dioxoimidazolidin-1-yl}-2-trifluoromethylbenzonitrile] | > 10000 | 12 | 1
7 |  |  |  | CC1(C)C(=O)N(c2ccc(C#N)c(C(F)(F)F)c2)C(=O)N1Cc1ccccc1Nc1ccc(C(F)(F)F)cc1 [Example 5, 4-{3-[2-(4-trifluoromethylphenylamino)benzyl]-4,4-dimethyl-2,5-dioxoimidazolidin-1-yl}-2-trifluoromethylbenzonitrile] | > 10000 | 44 | 7
8 |  |  |  | COc1ccc(Nc2ccccc2CN2C(=O)N(c3ccc(C#N)c(C(F)(F)F)c3)C(=O)C2(C)C)cc1 [Example 67, 4-{3-[2-(4-methoxyphenylamino)benzyl]-4,4-dimethyl-2,5-dioxoimidazolidin-1-yl}-2-trifluoromethylbenzonitrile] | > 10000 | 1 | 1
9 | > 10000 | 25 | 7 | CC1(C)C(=O)N(c2ccnc(C(F)(F)F)c2)C(=O)N1Cc1ccccc1Nc1ccc(F)cc1F [Example 66, 1-[2-(2,4-difluorophenylamino)benzyl]-5,5-dimethyl-3-(2-trifluoromethylpyridin-4-yl)imidazolidine-2,4-dione] |  |  | 
